# Literature values, collected in paper PMC9851200, “Multiparameter phenotypic screening for endogenous TFEB and TFE3 translocation identifies novel chemical series modulating lysosome function” (Autophagy, 2022).
# Key:
# Set-up in all cases: method as in original PKIS2 published data
# [1] = molecular target: kinases (KINOMEscan panel) (Homo sapiens, UniProt Q86UE8); conditions: kinase TLK2; Published KINOMEscan; ref original PKIS2 published data; cited from earlier work
# [2] = molecular target: T1, kinases (KINOMEscan panel) (Homo sapiens, UniProt O95835); conditions: LATS1; Published KINOMEscan; ref original PKIS2 published data; cited from earlier work
# T1 sequence (O95835 1-1130): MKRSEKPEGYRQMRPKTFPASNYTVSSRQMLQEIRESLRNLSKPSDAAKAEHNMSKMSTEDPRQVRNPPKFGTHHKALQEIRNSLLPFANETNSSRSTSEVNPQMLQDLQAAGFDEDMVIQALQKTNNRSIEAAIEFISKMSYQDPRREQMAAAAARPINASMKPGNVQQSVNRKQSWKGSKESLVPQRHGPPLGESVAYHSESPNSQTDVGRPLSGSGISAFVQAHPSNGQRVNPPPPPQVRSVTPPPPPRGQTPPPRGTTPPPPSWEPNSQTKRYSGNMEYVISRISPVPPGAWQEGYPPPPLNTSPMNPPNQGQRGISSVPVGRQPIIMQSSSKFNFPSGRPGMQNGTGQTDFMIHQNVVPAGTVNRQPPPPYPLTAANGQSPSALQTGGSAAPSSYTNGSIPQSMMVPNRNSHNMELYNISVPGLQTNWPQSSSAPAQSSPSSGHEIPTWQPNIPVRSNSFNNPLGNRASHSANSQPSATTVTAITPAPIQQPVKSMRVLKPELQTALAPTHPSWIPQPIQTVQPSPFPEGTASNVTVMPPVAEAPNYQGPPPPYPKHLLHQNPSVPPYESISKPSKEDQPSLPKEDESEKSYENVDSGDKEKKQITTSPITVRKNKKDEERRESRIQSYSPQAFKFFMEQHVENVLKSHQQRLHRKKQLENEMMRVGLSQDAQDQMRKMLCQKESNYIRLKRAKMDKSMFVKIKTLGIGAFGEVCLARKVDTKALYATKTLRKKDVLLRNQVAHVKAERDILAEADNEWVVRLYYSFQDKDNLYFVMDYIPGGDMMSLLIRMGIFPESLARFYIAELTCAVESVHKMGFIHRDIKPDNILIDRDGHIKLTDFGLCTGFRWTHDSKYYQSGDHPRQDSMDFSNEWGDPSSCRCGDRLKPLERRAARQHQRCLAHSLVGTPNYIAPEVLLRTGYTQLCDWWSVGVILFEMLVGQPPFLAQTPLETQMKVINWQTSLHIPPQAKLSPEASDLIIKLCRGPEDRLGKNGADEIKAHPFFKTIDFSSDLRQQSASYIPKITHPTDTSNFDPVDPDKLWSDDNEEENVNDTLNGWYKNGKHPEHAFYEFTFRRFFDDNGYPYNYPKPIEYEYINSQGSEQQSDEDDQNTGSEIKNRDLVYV
# [3] = molecular target: T2, kinases (KINOMEscan panel) (Homo sapiens, UniProt Q92630); conditions: DYRK2; Published KINOMEscan; ref original PKIS2 published data; cited from earlier work
# T2 sequence (Q92630 1-601): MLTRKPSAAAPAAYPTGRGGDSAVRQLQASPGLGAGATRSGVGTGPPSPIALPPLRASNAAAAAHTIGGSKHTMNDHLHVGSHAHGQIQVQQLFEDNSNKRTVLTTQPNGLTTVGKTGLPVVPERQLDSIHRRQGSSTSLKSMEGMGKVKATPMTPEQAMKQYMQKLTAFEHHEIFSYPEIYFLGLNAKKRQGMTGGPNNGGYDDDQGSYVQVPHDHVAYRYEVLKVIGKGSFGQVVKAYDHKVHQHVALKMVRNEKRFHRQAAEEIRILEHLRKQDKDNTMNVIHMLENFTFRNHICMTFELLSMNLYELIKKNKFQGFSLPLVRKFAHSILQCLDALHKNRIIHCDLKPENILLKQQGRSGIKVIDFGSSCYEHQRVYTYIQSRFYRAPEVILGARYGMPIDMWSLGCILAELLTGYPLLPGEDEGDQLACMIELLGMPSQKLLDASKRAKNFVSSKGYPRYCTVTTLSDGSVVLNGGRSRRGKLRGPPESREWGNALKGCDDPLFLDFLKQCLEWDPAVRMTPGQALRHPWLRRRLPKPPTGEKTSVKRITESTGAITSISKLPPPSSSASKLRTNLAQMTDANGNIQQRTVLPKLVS
# [4] = molecular target: kinases (KINOMEscan panel) (Homo sapiens, UniProt P54756); conditions: kinase EPHA5; Published KINOMEscan; ref original PKIS2 published data; cited from earlier work
# [5] = molecular target: kinases (KINOMEscan panel) (Homo sapiens, UniProt Q5S007); conditions: Published KINOMEscan; ref original PKIS2 published data; cited from earlier work
# [6] = molecular target: kinases (KINOMEscan panel) (Homo sapiens, UniProt Q9BYT3); conditions: kinase STK33; Published KINOMEscan; ref original PKIS2 published data; cited from earlier work
# [7] = molecular target: kinases (KINOMEscan panel) (Homo sapiens, UniProt Q52WX2); conditions: SBK1; Published KINOMEscan; ref original PKIS2 published data; cited from earlier work
# [8] = molecular target: T3, kinases (KINOMEscan panel) (Homo sapiens, UniProt Q9HBY8); conditions: Published KINOMEscan; ref original PKIS2 published data; cited from earlier work
# T3 sequence (Q9HBY8 1-367): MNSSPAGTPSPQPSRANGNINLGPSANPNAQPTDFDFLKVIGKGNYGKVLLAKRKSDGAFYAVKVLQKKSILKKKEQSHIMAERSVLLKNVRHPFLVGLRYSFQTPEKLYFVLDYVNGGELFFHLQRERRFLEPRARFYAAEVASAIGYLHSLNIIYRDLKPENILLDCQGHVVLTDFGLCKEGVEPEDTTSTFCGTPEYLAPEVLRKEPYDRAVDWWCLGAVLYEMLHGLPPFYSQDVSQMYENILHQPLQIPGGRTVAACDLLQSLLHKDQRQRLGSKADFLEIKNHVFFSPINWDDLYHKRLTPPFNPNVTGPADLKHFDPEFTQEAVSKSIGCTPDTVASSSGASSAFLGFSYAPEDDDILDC
# kinases (KINOMEscan panel) (Homo sapiens, UniProt Q5S007), sequence (Q5S007 whole entry): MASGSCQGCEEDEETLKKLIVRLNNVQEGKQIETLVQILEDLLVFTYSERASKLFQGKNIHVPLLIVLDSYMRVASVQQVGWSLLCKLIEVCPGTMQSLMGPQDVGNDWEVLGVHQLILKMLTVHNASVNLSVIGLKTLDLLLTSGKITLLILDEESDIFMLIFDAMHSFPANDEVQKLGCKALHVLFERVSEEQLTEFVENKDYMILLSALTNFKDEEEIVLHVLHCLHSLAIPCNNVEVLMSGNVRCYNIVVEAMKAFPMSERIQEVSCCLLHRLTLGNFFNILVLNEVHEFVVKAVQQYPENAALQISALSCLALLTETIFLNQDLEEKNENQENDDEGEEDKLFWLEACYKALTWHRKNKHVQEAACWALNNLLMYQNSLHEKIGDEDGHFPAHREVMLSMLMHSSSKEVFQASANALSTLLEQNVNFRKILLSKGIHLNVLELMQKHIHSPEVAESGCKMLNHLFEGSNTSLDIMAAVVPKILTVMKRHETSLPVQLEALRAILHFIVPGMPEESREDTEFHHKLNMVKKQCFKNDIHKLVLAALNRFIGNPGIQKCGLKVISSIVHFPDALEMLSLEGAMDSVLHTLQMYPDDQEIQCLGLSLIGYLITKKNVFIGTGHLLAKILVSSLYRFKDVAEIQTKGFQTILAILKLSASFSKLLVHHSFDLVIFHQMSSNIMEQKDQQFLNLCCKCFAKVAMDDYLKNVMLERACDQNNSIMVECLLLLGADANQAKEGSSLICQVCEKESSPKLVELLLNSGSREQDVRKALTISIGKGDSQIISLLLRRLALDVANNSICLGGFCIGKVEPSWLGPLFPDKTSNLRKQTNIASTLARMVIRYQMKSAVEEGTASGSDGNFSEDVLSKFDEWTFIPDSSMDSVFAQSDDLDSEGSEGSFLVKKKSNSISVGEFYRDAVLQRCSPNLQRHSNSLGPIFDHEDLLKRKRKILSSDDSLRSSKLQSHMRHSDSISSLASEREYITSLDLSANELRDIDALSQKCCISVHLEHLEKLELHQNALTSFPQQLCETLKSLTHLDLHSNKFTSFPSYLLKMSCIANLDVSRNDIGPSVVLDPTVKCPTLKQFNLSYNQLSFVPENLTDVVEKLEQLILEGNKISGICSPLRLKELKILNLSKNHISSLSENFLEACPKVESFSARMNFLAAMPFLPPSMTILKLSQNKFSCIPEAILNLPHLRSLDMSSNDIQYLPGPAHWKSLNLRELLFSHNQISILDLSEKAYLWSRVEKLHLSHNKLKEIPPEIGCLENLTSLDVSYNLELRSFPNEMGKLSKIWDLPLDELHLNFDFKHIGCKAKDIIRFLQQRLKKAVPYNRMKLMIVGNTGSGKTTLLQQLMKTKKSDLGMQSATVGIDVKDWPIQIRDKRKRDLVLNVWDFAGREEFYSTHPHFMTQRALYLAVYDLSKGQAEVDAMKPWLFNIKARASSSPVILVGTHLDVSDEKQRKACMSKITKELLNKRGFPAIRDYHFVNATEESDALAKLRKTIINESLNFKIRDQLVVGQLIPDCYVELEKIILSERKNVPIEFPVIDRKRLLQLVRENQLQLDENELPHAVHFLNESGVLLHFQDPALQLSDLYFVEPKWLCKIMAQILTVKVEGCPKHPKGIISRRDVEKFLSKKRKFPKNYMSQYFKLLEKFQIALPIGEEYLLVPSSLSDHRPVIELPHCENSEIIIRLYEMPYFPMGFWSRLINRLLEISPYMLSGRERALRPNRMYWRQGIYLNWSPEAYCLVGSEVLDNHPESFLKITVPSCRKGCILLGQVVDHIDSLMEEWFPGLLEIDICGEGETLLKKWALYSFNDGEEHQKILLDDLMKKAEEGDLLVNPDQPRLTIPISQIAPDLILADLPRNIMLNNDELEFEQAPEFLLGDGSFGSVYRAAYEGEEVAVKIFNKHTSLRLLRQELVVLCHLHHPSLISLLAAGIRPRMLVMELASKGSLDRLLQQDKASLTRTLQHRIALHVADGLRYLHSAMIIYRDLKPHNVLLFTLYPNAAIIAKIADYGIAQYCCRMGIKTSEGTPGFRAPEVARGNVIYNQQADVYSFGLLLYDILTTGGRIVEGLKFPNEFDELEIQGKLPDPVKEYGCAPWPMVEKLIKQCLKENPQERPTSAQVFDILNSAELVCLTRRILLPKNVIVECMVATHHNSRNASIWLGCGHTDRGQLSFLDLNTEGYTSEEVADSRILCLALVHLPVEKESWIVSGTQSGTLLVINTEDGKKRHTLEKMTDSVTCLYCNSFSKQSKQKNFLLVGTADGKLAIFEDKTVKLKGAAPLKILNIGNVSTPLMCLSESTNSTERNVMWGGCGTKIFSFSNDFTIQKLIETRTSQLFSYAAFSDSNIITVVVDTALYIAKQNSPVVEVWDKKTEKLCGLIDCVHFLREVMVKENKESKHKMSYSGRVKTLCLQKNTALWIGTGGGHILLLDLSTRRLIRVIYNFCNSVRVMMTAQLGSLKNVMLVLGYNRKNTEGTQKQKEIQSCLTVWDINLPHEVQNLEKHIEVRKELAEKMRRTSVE
# kinases (KINOMEscan panel) (Homo sapiens, UniProt Q52WX2), sequence (Q52WX2 whole entry): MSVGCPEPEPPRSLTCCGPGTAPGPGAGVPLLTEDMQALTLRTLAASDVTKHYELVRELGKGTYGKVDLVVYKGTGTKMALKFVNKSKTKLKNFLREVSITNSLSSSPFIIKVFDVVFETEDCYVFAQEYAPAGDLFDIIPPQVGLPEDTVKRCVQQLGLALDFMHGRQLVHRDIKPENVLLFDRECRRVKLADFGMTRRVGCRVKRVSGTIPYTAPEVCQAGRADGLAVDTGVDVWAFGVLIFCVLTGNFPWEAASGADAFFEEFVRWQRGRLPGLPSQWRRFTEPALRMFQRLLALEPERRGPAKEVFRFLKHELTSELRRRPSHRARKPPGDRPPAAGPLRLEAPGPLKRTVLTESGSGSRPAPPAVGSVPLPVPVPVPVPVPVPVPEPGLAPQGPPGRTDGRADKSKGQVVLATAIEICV
# kinases (KINOMEscan panel) (Homo sapiens, UniProt Q86UE8), sequence (Q86UE8 whole entry): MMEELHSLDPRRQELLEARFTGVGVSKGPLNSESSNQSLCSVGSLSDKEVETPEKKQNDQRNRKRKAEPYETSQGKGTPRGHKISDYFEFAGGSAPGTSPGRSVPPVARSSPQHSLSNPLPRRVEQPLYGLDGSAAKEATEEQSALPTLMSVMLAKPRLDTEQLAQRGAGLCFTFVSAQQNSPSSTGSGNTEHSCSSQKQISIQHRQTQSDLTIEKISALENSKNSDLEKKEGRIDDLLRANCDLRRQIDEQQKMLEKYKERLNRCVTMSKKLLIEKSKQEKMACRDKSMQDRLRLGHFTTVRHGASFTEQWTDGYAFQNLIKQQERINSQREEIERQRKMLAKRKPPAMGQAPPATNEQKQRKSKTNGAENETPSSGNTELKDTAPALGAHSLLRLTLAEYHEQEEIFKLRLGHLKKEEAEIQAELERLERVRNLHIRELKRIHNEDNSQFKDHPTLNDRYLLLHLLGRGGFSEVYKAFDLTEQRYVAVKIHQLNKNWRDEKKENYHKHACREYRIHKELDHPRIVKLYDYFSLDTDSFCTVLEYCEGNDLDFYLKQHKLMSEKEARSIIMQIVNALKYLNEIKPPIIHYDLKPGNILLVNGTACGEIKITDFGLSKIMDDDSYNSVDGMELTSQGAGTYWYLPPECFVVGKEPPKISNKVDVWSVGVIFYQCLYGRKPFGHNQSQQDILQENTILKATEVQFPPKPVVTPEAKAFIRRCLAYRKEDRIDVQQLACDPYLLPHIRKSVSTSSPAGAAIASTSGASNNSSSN
# kinases (KINOMEscan panel) (Homo sapiens, UniProt P54756), sequence (P54756 25-1037): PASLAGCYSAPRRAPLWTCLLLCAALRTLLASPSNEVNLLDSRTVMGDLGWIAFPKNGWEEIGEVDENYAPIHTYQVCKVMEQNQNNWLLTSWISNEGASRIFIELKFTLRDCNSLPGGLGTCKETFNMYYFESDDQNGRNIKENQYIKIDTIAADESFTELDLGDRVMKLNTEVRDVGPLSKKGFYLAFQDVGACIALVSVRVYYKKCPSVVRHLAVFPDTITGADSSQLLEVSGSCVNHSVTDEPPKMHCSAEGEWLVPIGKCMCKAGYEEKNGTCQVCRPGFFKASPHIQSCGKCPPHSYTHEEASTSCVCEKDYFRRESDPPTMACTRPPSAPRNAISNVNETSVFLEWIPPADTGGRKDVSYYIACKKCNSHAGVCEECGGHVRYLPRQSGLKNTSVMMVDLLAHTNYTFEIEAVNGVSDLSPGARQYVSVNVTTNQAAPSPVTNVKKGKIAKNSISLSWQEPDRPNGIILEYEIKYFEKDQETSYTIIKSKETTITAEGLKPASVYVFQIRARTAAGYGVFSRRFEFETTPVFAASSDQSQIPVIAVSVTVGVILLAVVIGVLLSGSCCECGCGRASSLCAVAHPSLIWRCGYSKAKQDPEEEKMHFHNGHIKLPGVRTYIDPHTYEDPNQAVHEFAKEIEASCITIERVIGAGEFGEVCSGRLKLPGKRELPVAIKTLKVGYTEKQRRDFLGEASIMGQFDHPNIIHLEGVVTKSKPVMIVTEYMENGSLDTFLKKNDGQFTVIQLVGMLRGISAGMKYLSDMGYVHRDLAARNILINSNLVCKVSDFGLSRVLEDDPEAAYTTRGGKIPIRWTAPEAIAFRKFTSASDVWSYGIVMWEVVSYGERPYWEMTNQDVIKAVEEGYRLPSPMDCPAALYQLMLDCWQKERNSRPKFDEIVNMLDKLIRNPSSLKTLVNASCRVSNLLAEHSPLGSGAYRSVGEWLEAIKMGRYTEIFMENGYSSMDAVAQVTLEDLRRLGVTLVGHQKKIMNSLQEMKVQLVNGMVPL
compound,measurement,setting,value
Cc1cccc(-c2nc(Nc3ccncc3)c3ccccc3n2)n1 [NK215],KINOMEscan TLK2,[1],0
same,KINOMEscan LATS1,[2],3
same,KINOMEscan DYRK2,[3],0
same,KINOMEscan EPHA5,[4],0
same,KINOMEscan LRRK2,[5],0
same,KINOMEscan STK33,[6],2
same,KINOMEscan SBK1,[7],0
same,KINOMEscan SGK2,[8],0
